According to patent US20090304688A1, “Methods and Compositions for Increasing the Efficiency of Therapeutic Antibodies Using Gamma Delta T Cell Activators” (INNATE PHARMA S.A., priority 2006, published 2009):

Test system: γδ T lymphocytes
Assay: In vivo amplification of γδ T lymphocytes in primates

For “3-(bromomethyl)-3-butanol-1-yl-diphosphate [BrHPP]”, the “amplification of γδ T lymphocytes in vivo” value (BrHPP 90 mg/kg i.v. with IL-2 in rituximab-treated animals) was “efficiently and repeatedly amplified” and the “level and kinetics of γδ T lymphocyte response” value (BrHPP in rituximab-treated animals compared with BrHPP alone) was “at least as good as what is generally observed with BrHPP alone”.
